Results: US7446111B2, “Amorphous rapamycin 42-ester with 3-hydroxy-2-(hydroxymethyl)-2-methylpropionic acid and its pharmaceutical compositions” (Wyeth, priority 2003, dated 2008)
Values after ≈ are worked out from the molar mass of the structure shown. Where two headings read alike, the source gives them in different places.

How the values were obtained:
physchem [1] = assay type: physicochemical; details: for Solubility: pH 4.6
Description: The solutions were mixed and maintained at room temperature and a pH of about 4.6. The vials were then shaken on a rotary shaker for 24 hours.
Samples (2 mL) of both of the amorphous and crystalline solutions were withdrawn at selected time intervals (0, 0.5, 3, 5, and 24 h), filtered through a 0.2 μm filter and analyzed at room temperature using high performance liquid chromatography (HPLC) (Table 1). The solubility of the samples was calculated using the data provided in the HPLC chromatograph and techniques used by those skilled in the art and is provided in Table 3.

physchem [2] = assay type: physicochemical
Description: A 0.005 M citric acid solution containing 0.2% sodium lauryl sulfate and 0.001% calcium EDTA was adjusted to a pH of about 4.73.
The solutions were then mixed, maintained at room temperature, and shaken on a rotary shaker for about 24 to about 48 hours.
Samples (2 mL) of both the amorphous and crystalline solutions were withdrawn at 24 h and 48 h, filtered through a 0.2 μm filter and analyzed at room temperature using high performance liquid chromatography (HPLC) (Table 4). Solubilities of the samples were then calculated using the data provided in the HPLC chromatograph and techniques used by those of skilled in the art and is provided in Table 4.

[3] = 5° C., 1 week, sample prepared by evaporation
[4] = 5° C., 2 weeks, sample prepared by evaporation
[5] = 40° C./75% RH, 1 week, sample prepared by evaporation
[6] = 40° C./75% RH, 2 weeks, sample prepared by evaporation
[7] = Initial, sample prepared by evaporation
[8] = 5° C., 1 Week, sample prepared by precipitation
[9] = 40° C./75% RH, 1 Week, sample prepared by precipitation
[10] = Initial, sample prepared by precipitation
[11] = RT, 1 Week, sample prepared by precipitation
[12] = 25 °C, pH 4.6, aqueous buffer, thermodynamic from solid
[13] = 25 °C, pH 4.73, aqueous with cosolvent or surfactant or cyclodextrin, thermodynamic from solid

With `CO[C@H]1C[C@@H]2CC[C@@H](C)[C@@](O)(O2)C(=O)C(=O)N2CCCC[C@H]2C(=O)O[C@H]([C@H](C)C[C@@H]2CC[C@@H](OC(=O)C(C)(CO)CO)[C@H](OC)C2)CC(=O)[C@H](C)/C=C(\C)[C@@H](O)[C@@H](OC)C(=O)[C@H](C)C[C@H](C)/C=C/C=C/C=C/1C` [batch A1, rapamycin 42-ester with 3-hydroxy-2-(hydroxymethyl)-2-methylpropionic acid] the “SLI*” value [3] was 3.91%, the Strength [3] was 95.20% and the “Total Imp” value [3] was 5.07%. For the same molecule, the “SLI*” value [4] was 3.74%, the Strength [4] was 92.56% and the “Total Imp” value [4] was 4.42%. For the same molecule, the “SLI*” value [5] was 3.93%, the Strength [5] was 94.16% and the “Total Imp” value [5] was 5.15%. For the same molecule, the “SLI*” value [6] was 3.72%, the Strength [6] was 90.55% and the “Total Imp” value [6] was 4.60%. The SLI [7] was 0.19%, the Strength [7] was “Strength = 98.33%,” and the “Total Imp” value [7] was 0.46%.

With `COC1CC2CCC(C)C(O)(O2)C(=O)C(=O)N2CCCCC2C(=O)OC(C(C)CC2CCC(OC(=O)C(C)(CO)CO)C(OC)C2)CC(=O)C(C)/C=C(\C)C(O)C(OC)C(=O)C(C)CC(C)/C=C/C=C/C=C/1C` (centres unmarked) [Amorphous (batch C4), rapamycin 42-ester with 3-hydroxy-2-(hydroxymethyl)-2-methylpropionic acid] the SLI [8] was 0.15%, the Strength [8] was 98.71% and the “Total Imp” value [8] was 0.44%. It also gave an SECO [9] of 0.04%, an SLI [9] of 0.32% and a Strength [9] of 91.36%. For the same molecule, the “Total Imp” value [9] was 0.70%, the SLI [10] was 0.20% and the Strength [10] was 97.93%. For the same molecule, the “Total Imp” value [10] was 0.41%, the SLI [11] was 0.12% and the Strength [11] was 97.49%. The “Total Imp” value [11] was 0.37%.

`CO[C@H]1C[C@@H]2CC[C@@H](C)[C@@](O)(O2)C(=O)C(=O)N2CCCC[C@H]2C(=O)O[C@H]([C@H](C)C[C@@H]2CC[C@@H](OC(=O)C(C)(CO)CO)[C@H](OC)C2)CC(=O)[C@H](C)/C=C(\C)[C@@H](O)[C@@H](OC)C(=O)[C@H](C)C[C@H](C)/C=C/C=C/C=C/1C` [Crystalline, rapamycin 42-ester with 3-hydroxy-2-(hydroxymethyl)-2-methylpropionic acid] showed a Solubility (physchem [1]; 0 h) of 0 µg/mL, a solubility at 0.5 h (physchem [1]; [12]) of 0.26 µg/mL (≈ 0.252 µM) and a solubility at 3 h (physchem [1]; [12]) of 0.29 µg/mL (≈ 0.281 µM). The solubility at 5 h (physchem [1]; [12]) was 0.23 µg/mL (≈ 0.223 µM), the solubility at 24 h (physchem [1]; [12]) was 0.61 µg/mL (≈ 0.592 µM) and the solubility at 24 h (physchem [2]; [13]) was 640 µg/mL (≈ 621 µM). It also gave a solubility at 48 h (physchem [2]; [13]) of 640 µg/mL (≈ 621 µM).

With `COC1CC2CCC(C)C(O)(O2)C(=O)C(=O)N2CCCCC2C(=O)OC(C(C)CC2CCC(OC(=O)C(C)(CO)CO)C(OC)C2)CC(=O)C(C)/C=C(\C)C(O)C(OC)C(=O)C(C)CC(C)/C=C/C=C/C=C/1C` (centres unmarked) [amorphous rapamycin 42-ester with 3-hydroxy-2-(hydroxymethyl] [rapamycin 42-ester with 3-hydroxy-2-(hydroxymethyl)-2-methylpropionic acid] the “Solubility relative to crystalline form” value (physchem [1]) was 3 times, the “Solubility relative to crystalline form (general statement)” value (physchem [1]) was “at least 3 times” and the Solubility (physchem [1]) was “about 1.88 μg/mL”. For the same molecule, the “Solubility relative to crystalline form” value (physchem [2]) was “about 3.5 times”, the Solubility (physchem [2]; pH 4.73) was “about 2.17 mg/mL” and the “Temperature up to which the amorphous form is stable” value was “up to 5 °C”.
